Literature values in patent publication US20070148074A1, “Nanoparticle based stabilization of ir fluorescent dyes” (priority 2003, published 2007).

Columns and labels:
[1] = human body, administered intravenously

fraction of dye in plasma that is protein-bound: ~95% | elimination half-life [1]: 2 to 4 min
Compound: CC1(C)C(/C=C/C=C/C=C/C=C2\N(CCCCS(=O)(=O)O)c3ccc4ccccc4c3C2(C)C)=[N+](CCCCS(=O)(=O)[O-])c2ccc3ccccc3c21 [ICG, indocyanine green]
